Experiment [1] deals with HemO (Pseudomonas aeruginosa, UniProt G3XCZ8, R188A). In words: biochemical.
Experiment [2] concerns the target HemO (Pseudomonas aeruginosa, UniProt G3XCZ8, D99A/R188A). Nature of the experiment: biochemical.
The target of experiment [3] is HemO (Pseudomonas aeruginosa, UniProt G3XCZ8, D99A). Nature of the experiment: biochemical.
Experiment [4] has as its target HemO (Pseudomonas aeruginosa, UniProt G3XCZ8). In words: intrinsic fluorescence quenching. The experiment is classed as binding.

In general, Kd refers to the concentration at which binding is half-saturated. A higher Kd goes with lower affinity.

Consider `C=CC1=C(C)C2=Cc3c(C=C)c(C)c4[n]3[Fe]([Cl])[n]3c(c(C)c(CCC(=O)O)c3=CC3=NC(=C4)C(C)=C3CCC(=O)O)=CC1=N2` [heme], for which the Kd in experiment [1] was 0.79 ± 0.22 µM; in experiment [2], 0.99 ± 0.21 µM; in experiment [3], 0.83 ± 0.21 µM; in experiment [4] it was 0.87 ± 0.17 µM.

The values above are taken from PMC6203605 (Journal of biological inorganic chemistry : JBIC : a …, 2018).
